PMC12921513 (ACS Bio & Med Chem Au, 2025)
Values joined by “and” are separate entries in the source; they are usually repeats but may differ in a detail not shown here. Identical values can stand only once.

The compounds below were run on SaFabI (assay: SaFabI fluorescence intensity counter-screen). Conditions: 30 μM inhibitor, 200 nM enzyme.
Method: A similar fluorescence intensity assay was utilized to counter-screen against S. aureus (SaFabI) to determine the degree of selectivity for FabK over FabI.
The SaFabI assay was conducted as follows. Reactions were carried out at 25 °C in the assay buffer (50 mM MES pH 5.5, 100 mM NaCl). […] The oxidation of NADPH to NADP^+ was measured by tracking fluorescence (340 nm/460 nm) with a Biotek Synergy H1 microplate reader in 15 s intervals for a total of 10 min to monitor the rate of reaction. Reaction was conducted in Greiner Bio-One 384-Well μClear Bottom Polystyrene Microplates. The percent inhibition of each compound was calculated on the basis of the resulting velocity.

Row | Compound | SaFabI % inhibition, 30 μM
1 | Oc1cc(Cl)ccc1Oc1ccc(Cl)cc1Cl [triclosan, reference compound] | 99% and 99.9%
2 | O=C(NCc1nc(-c2ccc(Br)cc2)c[nH]1)Nc1nc2cc(Cl)ccc2s1 [compound 3] | 9.8%
3 | O=C(NCc1nc(-c2ccc(Br)cc2)c[nH]1)Nc1nc2cccc(C(F)(F)F)c2s1 [compound 4] | 18%
4 | CS(=O)(=O)c1ccc2nc(NC(=O)NCc3nc(-c4ccc(Br)cc4)c[nH]3)sc2c1 [compound 2] | 21.0%
